From patent US7598028B2, “Compositions and methods for detecting and treating prostate disorders” (The Regents of the University of Michigan, priority 2006, dated 2009)

Experiments:
ERK ½ = assay: Western blot, ERK phosphorylation in N15C6 cells; assay type: cell-based, human
Protocol: Western blot analysis Cells were lysed, proteins resolved by electrophoresis and electroblotting was carried out as described previously (Chaib H, et al., (2001) Cancer Res. 61, 2390-2394; incorporated herein by reference in its entirety). Proteins were detected using antibodies against phospho-ERK½ (Cell Signaling no. 9101), total ERK½ (Cell Signaling, no. 9102), CXCR4 (Abcam no. ab2074), CXCR7 (Abcam #Ab12870, Abcam #Ab12871, Abcam #38089), phospho-p65 (Rockland no. 100-401-264), total p65 (Rockland no. 100-4165), or beta-actin (Santa Cruz no. sc-1615), in conjunction with an ECL detection system.
Western Blot Analysis. Cells were lysed, proteins resolved by electrophoresis, and electroblotting was carried out as described previously (see, e.g.; Chaib H, et al., 2001 Cancer Res. 61, 2390-2394; incorporated herein by reference in its entirety). Proteins were detected using antibodies against phospho-ERK½ (Cell Signaling #9101), total ERK½ (Cell Signaling #9102), CXCR4 (Abcam #ab2074), Elk-1 (Cell Signaling #9182), Phospho Elk-1 (Cell Signaling #9181), or beta-actin (Santa Cruz #sc-1615), in conjunction with an ECL detection system.
Western Blot and Protein Analysis. Cells were lysed, proteins resolved by electrophoresis, and electroblotting was carried out as described previously except that 20 ug protein was electrophoresed per gel lane for N15C6 cells and 100 ug protein for LNCaP cells (see, e.g., Begley L, et al., Aging Cell. 2005 December; 4(6):291-8; Begley L A, et al., J Biol. Chem. 2007 Sep. 14; 282(37):26767-74; each herein incorporated by reference in their entireties). Proteins were detected using antibodies against phospho-ERK½ (Cell Signaling #9101), total ERK½ (Cell Signaling, #9102), phospho-p65, (Rockland #100-401-264), total p65 (Rockland #100-4165), STAT3 (9139), phospho-STAT3 (9138), beta-actin (Santa Cruz #sc-1615), or tubulin (Upstate, #DM1A) in conjunction with an ECL detection system. Secondary antibodies included goat anti-rabbit (Cell Signaling, #7074) and goat anti-mouse (Santa Cruz, #SC-2005), and both were used at a 1:5000 concentration. Immunoblots shown are representative of triplicate experiments. Densitometric quantitation of immunoblot films was accomplished by scanning the original films and converting the .tiff files to grayscale. Images were inverted, and mean band intensities were measured using ImageJ (www, followed by, .nih.gov). The mean intensity of adjacent background was also measured for each band and subtracted from band intensity.

EGR1 gene transcript = assay: Quantitative real-time PCR, EGR1 in LNCaP cells; assay type: cell-based, human
Protocol: Quantitative Real-Time PCR. All quantitative real-time assays were conducted with an Applied Biosystems 7900HT instrument and reagents. Cells were grown to 70% confluence in […] dishes prior to RNA purification using the Trizol reagent (Invitrogen Life Technologies). Experiments utilizing U0126 were performed as above, except that cells were treated with DMSO (vehicle) or 5 uM U0126 for 2 hours, then grown in the presence or absence of CXCL12. For all experiments, one microgram of RNA was reverse transcribed by use of Superscript III reverse transcriptase (Invitrogen, Carlsbad, Calif.). The resulting cDNA was diluted 1:100. Real-time PCR was performed by use of Assays on Demand (Applied BioSystems, Foster City, Calif.) according to the manufacturer's instructions, except that Real Time Ready with Rox passive dye (QBioGene, Carlsbad, Calif.) was used in place of TaqMan Universal PCR Master Mix. […] Cycle numbers to threshold were calculated by subtracting averaged control from averaged experimental values, and Fold Gene Expression was calculated by raising […]. […]
Quantitative Real-Time PCR. All quantitative real-time assays were conducted as previously described with an Applied Biosystems 7900HT instrument and reagents (see, e.g., Begley L A, et al., J Biol. Chem. 2007 Sep. 14; 282(37):26767-74; herein incorporated by reference in its entirety). […]

Compound | effect on CXCL12-stimulated ERK ½ phosphorylation (ERK ½; 0.1 uM or 1.0 uM U0126, 1 pM CXCL12) | effect on CXCL12-stimulated ERK ½ phosphorylation (ERK ½; 1 uM U0126 pre-treatment, 10 pM or 1000 pM CXCL12) | effect on CXCL12-stimulated ERK phosphorylation (ERK ½; 1.0 uM or 5.0 uM U0126, 1 pM, 10 pM or 1000 pM CXCL12) | effect on CXCL12-stimulated ERK ½ phosphorylation (ERK ½; 5 uM U0126 pre-treatment, 10 pM or 1000 pM CXCL12) | effect on CXCL12-stimulated EGR1 gene transcription (EGR1 gene transcript; 5 uM U0126 for 2 hours, then 50 pM CXCL12) | ERK ½ phosphorylation (ERK ½; 10 pM, 100 pM or 1 nM CXCL5) | EGR1 transcript versus vehicle-treated cells (EGR1 gene transcript; only at the lowest CXCL5 concentration (10 pM) tested)
N#CC(=C(/N)Sc1ccccc1N)/C(C#N)=C(\N)Sc1ccccc1N [U0126] | diminished | reduces | greatly diminishes | ablates | ablates |  | 
CXCL5: recombinant human CXCL5 (R&D Systems, 254-X), CXC-type chemokine |  |  |  |  |  | rapidly and transiently phosphorylated | 2- to 3 fold
